Data on one compound can be found in ChEMBL document CHEMBL3259563, “The discovery of potent and selective non-steroidal glucocorticoid receptor modulators, suitable for inhalation” (Bioorg Med Chem Lett, 2014).

Data set [1] concerns the target T1, Androgen receptor (Homo sapiens, UniProt P10275).
T1 sequence (P10275 whole entry): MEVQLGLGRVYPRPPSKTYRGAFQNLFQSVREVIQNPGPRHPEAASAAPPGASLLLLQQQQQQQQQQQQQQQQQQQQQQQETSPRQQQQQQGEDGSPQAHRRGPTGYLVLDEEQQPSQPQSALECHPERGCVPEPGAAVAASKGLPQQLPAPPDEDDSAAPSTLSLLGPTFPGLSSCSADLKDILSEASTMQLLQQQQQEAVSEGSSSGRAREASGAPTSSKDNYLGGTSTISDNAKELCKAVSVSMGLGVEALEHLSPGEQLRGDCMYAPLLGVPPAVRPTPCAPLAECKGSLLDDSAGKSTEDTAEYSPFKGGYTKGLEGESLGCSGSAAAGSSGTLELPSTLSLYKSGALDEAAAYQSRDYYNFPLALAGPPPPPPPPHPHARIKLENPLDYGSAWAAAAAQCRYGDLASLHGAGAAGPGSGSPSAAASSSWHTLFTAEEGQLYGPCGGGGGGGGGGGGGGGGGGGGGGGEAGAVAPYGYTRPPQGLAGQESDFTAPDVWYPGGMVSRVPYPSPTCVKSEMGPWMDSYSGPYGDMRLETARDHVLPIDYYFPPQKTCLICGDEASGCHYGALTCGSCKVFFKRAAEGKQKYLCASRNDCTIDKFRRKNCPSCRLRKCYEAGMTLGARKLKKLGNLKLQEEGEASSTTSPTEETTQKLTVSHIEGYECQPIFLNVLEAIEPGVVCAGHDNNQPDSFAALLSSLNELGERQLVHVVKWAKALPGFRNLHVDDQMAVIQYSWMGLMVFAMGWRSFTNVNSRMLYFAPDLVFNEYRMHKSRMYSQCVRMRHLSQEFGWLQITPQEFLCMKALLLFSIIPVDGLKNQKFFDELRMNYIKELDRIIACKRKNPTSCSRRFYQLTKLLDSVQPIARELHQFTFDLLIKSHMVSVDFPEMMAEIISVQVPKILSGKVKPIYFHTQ
The data set can be described thus: Binding affinity to androgen receptor (unknown origin).

The subject of data set [2] is Plasma. The data set can be described thus: Fraction unbound in human plasma. In kind it is ADME, cell-free.
Data set [3] deals with Cytochrome P450 2D6 (Homo sapiens, UniProt P10635). The data set can be described thus: Inhibition of CYP2D6 (unknown origin). In kind it is ADME.
In data set [4] the target is T2, Cytochrome P450 1A2 (Homo sapiens, UniProt P05177).
T2 sequence (P05177 whole entry): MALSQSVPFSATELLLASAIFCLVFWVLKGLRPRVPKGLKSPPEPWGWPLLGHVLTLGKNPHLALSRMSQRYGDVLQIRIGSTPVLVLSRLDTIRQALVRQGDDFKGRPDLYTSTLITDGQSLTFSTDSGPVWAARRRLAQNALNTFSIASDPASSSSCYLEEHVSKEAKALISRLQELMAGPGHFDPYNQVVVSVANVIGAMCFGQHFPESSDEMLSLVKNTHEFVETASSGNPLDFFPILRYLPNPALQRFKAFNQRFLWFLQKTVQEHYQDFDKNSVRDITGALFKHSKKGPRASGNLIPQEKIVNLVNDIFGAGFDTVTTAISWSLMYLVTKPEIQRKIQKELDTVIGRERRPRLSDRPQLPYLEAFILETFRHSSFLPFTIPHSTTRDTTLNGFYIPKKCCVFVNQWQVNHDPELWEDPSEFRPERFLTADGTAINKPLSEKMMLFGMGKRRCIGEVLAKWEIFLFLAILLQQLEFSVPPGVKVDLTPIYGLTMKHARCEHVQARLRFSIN
The data set can be described thus: Inhibition of CYP1A2 (unknown origin). The data set is classed as ADME.

In data set [5] the target is Cytochrome P450 3A4 (Homo sapiens, UniProt P08684). The data set can be described thus: Inhibition of CYP3A4 (unknown origin). The data set is classed as ADME.
The nature of data set [6]: Clearance in iv dosed rat. In kind it is ADME, organism-based. Particulars: in vivo.
A short description of data set [7]: Volume of distribution at steady state in iv dosed rat. The data set is classed as ADME, organism-based. The note with it: in vivo, read-out: Vdss.
The target in data set [8] is T3, Glucocorticoid receptor (Homo sapiens, UniProt P04150).
T3 sequence (P04150 whole entry): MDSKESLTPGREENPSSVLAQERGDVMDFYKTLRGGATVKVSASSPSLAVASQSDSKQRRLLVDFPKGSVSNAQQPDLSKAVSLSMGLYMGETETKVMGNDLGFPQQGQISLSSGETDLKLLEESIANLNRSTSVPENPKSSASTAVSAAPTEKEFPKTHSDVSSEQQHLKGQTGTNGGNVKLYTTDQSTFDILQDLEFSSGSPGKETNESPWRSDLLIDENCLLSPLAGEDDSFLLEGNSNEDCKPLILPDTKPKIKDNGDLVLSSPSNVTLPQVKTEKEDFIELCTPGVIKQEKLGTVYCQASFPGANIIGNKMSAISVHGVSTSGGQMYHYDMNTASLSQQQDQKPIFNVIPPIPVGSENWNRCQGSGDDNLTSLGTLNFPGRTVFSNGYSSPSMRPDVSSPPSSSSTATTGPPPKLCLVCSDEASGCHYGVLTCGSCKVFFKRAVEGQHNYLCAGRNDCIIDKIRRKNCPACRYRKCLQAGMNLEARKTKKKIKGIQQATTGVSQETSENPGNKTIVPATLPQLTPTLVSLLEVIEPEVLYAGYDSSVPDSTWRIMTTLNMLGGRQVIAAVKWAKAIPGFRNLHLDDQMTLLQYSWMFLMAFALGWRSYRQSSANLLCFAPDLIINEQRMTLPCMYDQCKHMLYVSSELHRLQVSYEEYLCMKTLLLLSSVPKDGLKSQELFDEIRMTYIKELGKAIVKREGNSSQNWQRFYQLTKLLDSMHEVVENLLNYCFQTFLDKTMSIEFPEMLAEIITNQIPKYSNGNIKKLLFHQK
Description: Agonist activity at glucocorticoid receptor in human Chago K1 cells assessed as gene transrepression by Lac-Z reporter gene assay

Cytochrome P450 3A4, sequence (P08684 whole entry): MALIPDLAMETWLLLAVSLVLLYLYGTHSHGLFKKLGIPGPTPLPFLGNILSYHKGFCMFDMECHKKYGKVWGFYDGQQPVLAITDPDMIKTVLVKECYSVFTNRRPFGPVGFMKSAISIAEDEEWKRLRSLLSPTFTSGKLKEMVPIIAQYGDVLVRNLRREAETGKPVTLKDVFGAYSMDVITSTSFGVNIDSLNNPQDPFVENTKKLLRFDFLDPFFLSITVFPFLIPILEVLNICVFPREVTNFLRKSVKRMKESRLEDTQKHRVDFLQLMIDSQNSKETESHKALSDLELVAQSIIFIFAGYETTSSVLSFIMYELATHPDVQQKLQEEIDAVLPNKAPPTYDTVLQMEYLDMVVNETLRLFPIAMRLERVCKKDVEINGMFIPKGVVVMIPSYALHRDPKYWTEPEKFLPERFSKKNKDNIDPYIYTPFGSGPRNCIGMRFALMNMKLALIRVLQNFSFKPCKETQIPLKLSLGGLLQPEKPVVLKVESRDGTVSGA
Cytochrome P450 2D6, sequence (P10635 whole entry): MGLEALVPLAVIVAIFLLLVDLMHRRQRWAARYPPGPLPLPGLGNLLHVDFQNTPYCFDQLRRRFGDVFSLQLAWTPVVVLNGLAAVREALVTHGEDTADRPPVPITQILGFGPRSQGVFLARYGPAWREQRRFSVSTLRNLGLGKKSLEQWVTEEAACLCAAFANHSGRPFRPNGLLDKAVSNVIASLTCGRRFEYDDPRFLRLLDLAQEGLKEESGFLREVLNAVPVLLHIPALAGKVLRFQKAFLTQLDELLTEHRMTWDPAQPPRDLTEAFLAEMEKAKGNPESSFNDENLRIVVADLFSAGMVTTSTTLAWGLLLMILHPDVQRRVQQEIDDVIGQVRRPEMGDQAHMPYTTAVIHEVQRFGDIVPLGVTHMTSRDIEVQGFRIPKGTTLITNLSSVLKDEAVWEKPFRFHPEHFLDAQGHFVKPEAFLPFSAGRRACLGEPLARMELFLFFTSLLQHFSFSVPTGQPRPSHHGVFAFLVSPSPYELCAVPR

`Cc1nn(C2CCCC2)c(C)c1S(=O)(=O)N[C@@H](C)CNc1cccc2c1cnn2-c1ccc(F)nc1`: the IC50 – broadly, the midpoint of a concentration-inhibition curve – is greater than 1 µM in data set [1]; greater than 20 µM in data set [3]; greater than 20 µM in data set [4]; 22 µM in data set [5]; 0.0072 µM in data set [8]. In data set [2], this compound showed a Fu of 0.005%. In addition, the clearance (usually the volume of plasma or blood freed of the substance per unit of time) in data set [6] was 78 mL/min/kg. Also, in data set [7], the Vd was found to be 15 L/kg.
